The substances below were run on luciferase gene expression in HEK 293 cells in response to Comp. 004 (assay: Screen of riboswitch constructs with 12C6-1 variant aptamers (libraries N1-N5) against Comp. 004, luciferase in HEK 293 cells). Conditions: library N5 variant aptamers (L5, X16-X21 randomized) of 12C6-1 in riboswitch constructs; in response to Comp. 004 treatment; HEK 293 cells.
Assay type: cell-based, human
Method in brief: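 Riboswitch constructs carrying 12C6-1 aptamer variants, randomized in J2-4, J2-3/J3-3a/J3a-2/P3, L3a, J4-5/J5-4/P4 or L5 regions (libraries N1-N5), cloned into an intron-exon-intron cassette driving luciferase. Screened in HEK 293 cells with 25 µM Comp. 004; read-out is fold induction of gene expression versus parent Luci-12C6-1.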
In the case of “N5_3G12 (CTGGGGAGTCCT; chemistry not given here)”, the “Fold (induction of luciferase gene expression)” value (shortened to “Fold”) is reported as 756.5 fold.
For “N5_4D7 (CTGGGGAGTCCT; chemistry not given here)”, the “Fold” value was 588.1 fold.
In the case of “N5_4D8 (CTGGGGAGTCCT; chemistry not given here)”, the “Fold” value is reported as 565.6 fold.
In the case of “N5_4H7 (CTGGGGAGTCCT; chemistry not given here)”, the “Fold” value is reported as 714.3 fold.
In the case of “N5_5B6 (CTGGGGAGTCCT; chemistry not given here)”, the “Fold” value is reported as 1068.3 fold.
With “N5_5B7 (CTGGGGAGTCCT; chemistry not given here)” the “Fold” value was 1317.2 fold.
In the case of “N5_5C4 (CTGGGGAGTCCT; chemistry not given here)”, the “Fold” value is reported as 1235.2 fold.
For “N5_5D7 (CTGGGGAGTCCT; chemistry not given here)”, the “Fold” value was 769.4 fold.
For “N5_5D9 (CTGGGGAGTCCT; chemistry not given here)”, the “Fold” value was 712.5 fold.
For “N5_5E4 (CTGGGGAGTCCT; chemistry not given here)”, the “Fold” value was 1116.0 fold.
With “N5_6A3 (CTGGGGAGTCCT; chemistry not given here)” the “Fold” value was 696.0 fold.
For “N5_6A6 (CTGGGGAGTCCT; chemistry not given here)”, the “Fold” value was 1024.4 fold.
“N5_6A8 (CTGGGGAGTCCT; chemistry not given here)” was tested, and the “Fold” value was 1252.2 fold.
In the case of “N5_6B4 (CTGGGGAGTCCT; chemistry not given here)”, the “Fold” value is reported as 1435.7 fold.
With “N5_6B6 (CTGGGGAGTCCT; chemistry not given here)” the “Fold” value was 659.7 fold.
“N5_6D12 (CTGGGGAGTCCT; chemistry not given here)” was tested, and the “Fold” value was 2318.1 fold.
In the case of “N5_6E1 (CTGGGGAGTCCT; chemistry not given here)”, the “Fold” value is reported as 725.2 fold.
In the case of “N5_6E6 (CTGGGGAGTCCT; chemistry not given here)”, the “Fold” value is reported as 1032.8 fold.
In the case of “N5_6F4 (CTGGGGAGTCCT; chemistry not given here)”, the “Fold” value is reported as 1226.6 fold.
With “N5_6F5 (CTGGGGAGTCCT; chemistry not given here)” the “Fold” value was 1665.4 fold.
“N5_6F6 (CTGGGGAGTCCT; chemistry not given here)” was tested, and the “Fold” value was 953.0 fold.
With “N5_6G6 (CTGGGGAGTCCT; chemistry not given here)” the “Fold” value was 1004.4 fold.
In the case of “N5_6G10 (CTGGGGAGTCCT; chemistry not given here)”, the “Fold” value is reported as 1262.0 fold.
With “N5_6H10 (CTGGGGAGTCCT; chemistry not given here)” the “Fold” value was 1466.1 fold.
In the case of “N5_7A1 (CTGGGGAGTCCT; chemistry not given here)”, the “Fold” value is reported as 897.3 fold.
For “N5_7A4 (CTGGGGAGTCCT; chemistry not given here)”, the “Fold” value was 988.3 fold.
In the case of “N5_7A5 (CTGGGGAGTCCT; chemistry not given here)”, the “Fold” value is reported as 785.5 fold.
“N5_7A6 (CTGGGGAGTCCT; chemistry not given here)” was tested, and the “Fold” value was 314.5 fold.
For “N5_7A7 (CTGGGGAGTCCT; chemistry not given here)”, the “Fold” value was 1226.2 fold.
In the case of “N5_7A9 (CTGGGGAGTCCT; chemistry not given here)”, the “Fold” value is reported as 692.6 fold.

From patent publication US20250101436A1, “APTAMERS AND SMALL MOLECULE LIGANDS” (MeiraGTx UK II Limited, priority 2021, published 2025)
